Where two headings read alike, the source gives them in different places.
Key:
[1] = target: T1, AEA-DA lipid probe targets in Neuro2a cells (Mus musculus, UniProt P35564)
T1 sequence (P35564 21-591): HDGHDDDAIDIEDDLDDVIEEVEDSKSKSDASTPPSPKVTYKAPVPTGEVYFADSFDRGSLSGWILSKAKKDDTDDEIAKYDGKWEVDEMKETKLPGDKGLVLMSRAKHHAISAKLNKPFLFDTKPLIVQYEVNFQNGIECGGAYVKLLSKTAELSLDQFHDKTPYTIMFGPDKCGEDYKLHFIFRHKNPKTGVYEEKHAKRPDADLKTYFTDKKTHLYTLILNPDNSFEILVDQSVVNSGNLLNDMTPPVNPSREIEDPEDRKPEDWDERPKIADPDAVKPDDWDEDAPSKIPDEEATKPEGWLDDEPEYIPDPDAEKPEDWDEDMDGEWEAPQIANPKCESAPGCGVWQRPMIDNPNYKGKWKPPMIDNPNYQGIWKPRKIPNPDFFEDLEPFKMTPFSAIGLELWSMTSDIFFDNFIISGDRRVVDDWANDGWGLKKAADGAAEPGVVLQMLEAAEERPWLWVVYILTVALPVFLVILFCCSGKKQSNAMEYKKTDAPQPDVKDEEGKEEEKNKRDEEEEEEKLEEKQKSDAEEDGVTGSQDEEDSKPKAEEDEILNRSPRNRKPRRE

[2] = target: T2, AEA-DA lipid probe targets in Neuro2a cells (Mus musculus, UniProt P62492)
T2 sequence (P62492 1-216): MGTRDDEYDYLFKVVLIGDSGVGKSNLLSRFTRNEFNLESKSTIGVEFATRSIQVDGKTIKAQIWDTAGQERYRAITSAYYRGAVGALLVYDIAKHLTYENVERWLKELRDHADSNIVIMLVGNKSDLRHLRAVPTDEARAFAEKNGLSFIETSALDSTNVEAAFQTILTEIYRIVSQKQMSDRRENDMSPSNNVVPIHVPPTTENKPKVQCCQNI

[3] = target: T3, AEA-DA lipid probe targets in Neuro2a cells (Mus musculus, UniProt P18572)
T3 sequence (P18572 22-389): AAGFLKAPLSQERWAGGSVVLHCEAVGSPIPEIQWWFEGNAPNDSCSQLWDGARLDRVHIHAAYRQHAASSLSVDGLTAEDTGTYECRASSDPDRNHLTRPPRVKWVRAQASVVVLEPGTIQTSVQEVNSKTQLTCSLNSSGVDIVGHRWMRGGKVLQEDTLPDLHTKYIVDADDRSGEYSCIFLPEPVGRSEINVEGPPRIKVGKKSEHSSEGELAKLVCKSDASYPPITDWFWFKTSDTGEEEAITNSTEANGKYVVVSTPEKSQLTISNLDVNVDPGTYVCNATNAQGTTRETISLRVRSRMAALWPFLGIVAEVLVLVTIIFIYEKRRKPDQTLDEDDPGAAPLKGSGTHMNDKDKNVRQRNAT

[4] = target: T4, AEA-DA lipid probe targets in Neuro2a cells (Mus musculus, UniProt Q9CRD0)
T4 sequence (Q9CRD0 1-247): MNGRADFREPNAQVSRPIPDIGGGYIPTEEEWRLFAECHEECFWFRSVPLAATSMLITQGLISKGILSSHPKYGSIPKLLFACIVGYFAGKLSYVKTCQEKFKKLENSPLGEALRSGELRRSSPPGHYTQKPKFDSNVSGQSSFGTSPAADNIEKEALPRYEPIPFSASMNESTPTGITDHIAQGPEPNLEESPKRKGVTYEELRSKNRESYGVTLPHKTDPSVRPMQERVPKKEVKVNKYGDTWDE

[5] = target: T5, AEA-DA lipid probe targets in Neuro2a cells (Mus musculus, UniProt O88325)
T5 sequence (O88325 22-739): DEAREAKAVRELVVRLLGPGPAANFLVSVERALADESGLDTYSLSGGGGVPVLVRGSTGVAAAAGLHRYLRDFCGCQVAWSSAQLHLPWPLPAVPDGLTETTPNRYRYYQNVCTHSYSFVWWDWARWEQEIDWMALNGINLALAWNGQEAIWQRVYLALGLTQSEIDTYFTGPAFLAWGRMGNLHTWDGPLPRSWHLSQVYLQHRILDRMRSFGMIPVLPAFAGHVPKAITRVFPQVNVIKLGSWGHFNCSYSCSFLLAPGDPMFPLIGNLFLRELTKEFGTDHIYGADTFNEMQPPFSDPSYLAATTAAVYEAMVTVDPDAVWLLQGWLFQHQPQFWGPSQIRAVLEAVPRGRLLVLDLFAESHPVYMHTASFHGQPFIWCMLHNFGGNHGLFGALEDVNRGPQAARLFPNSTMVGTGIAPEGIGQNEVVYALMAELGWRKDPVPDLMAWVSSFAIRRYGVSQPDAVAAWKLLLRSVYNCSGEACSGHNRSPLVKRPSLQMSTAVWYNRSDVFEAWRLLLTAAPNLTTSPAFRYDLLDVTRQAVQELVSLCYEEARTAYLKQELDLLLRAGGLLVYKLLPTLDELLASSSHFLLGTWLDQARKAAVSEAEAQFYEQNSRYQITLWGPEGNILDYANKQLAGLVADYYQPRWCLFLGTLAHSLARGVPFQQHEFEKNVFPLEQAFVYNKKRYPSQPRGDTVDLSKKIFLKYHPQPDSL

[6] = target: T6, AEA-DA lipid probe targets in Neuro2a cells (Mus musculus, UniProt Q925I1)
T6 sequence (Q925I1 1-591): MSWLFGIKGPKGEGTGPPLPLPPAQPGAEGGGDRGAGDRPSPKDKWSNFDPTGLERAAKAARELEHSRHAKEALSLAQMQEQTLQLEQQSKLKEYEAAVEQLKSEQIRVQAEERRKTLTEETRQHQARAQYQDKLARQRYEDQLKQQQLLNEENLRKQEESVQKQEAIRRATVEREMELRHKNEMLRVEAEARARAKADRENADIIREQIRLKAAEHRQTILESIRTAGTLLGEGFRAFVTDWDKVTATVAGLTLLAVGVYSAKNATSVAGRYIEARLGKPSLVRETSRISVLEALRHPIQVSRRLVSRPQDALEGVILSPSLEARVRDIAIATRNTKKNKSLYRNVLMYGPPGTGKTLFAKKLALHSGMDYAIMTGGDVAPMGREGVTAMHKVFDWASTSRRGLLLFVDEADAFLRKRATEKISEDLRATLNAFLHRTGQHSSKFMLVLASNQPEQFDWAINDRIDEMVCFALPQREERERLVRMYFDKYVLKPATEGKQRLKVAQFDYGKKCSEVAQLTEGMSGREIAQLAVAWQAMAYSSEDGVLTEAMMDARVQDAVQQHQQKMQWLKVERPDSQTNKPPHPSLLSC

Row | Structure (SMILES) | SILAC ratio, Canx ([1]; competitor 25 μM) | SILAC ratio, Rab11a ([2]; competitor 25 μM) | SILAC ratio Bsg ([3]; competitor 25 μM) | SILAC ratio Ociad1 ([4]; competitor 25 μM) | SILAC ratio Naglu ([5]; competitor 25 μM) | SILAC ratio Atad3 ([6]; competitor 25 μM) | also measured
1 | CCCCC/C=C\C/C=C\C/C=C\C/C=C\CCCC(=O)NCCO [AEA, anandamide, reference compound] | – | – | – | – | – | – | SILAC ratio, Canx ([1]; competitor 200 μM): 1.6; SILAC ratio, Rab11a ([2]; competitor 200 μM): 1.6; SILAC ratio Bsg ([3]; competitor 200 μM): 1.3; SILAC ratio Ociad1 ([4]; competitor 200 μM): 1.6; SILAC ratio Naglu ([5]; competitor 200 μM): 1.3; SILAC ratio Atad3 ([6]; competitor 200 μM): 1.5
2 | O=C(/C=C/c1cccnc1)NCCCCC1CCN(C(=O)c2ccccc2)CC1 [FK-866, reference compound] | 1.2 | 1.2 | 1.0 | 1.1 | 1.3 | 1.2 | –
3 | CN1CCN(C(=O)c2c(-c3ccccc3)c3cc([N+](=O)[O-])ccc3n2C)CC1 [KML110, (1-Methyl-5-nitro-3-phenyl-1H-indol-2-yl)(4-methylpiperazin-1-yl)methanone] | 1.6 | 1.6 | 1.3 | 1.3 | 1.4 | 1.2 | –
4 | CN1CCN(C(=O)c2[nH]c3ccc([N+](=O)[O-])cc3c2-c2ccccc2)CC1 [MJN228, (4-Methylpiperazin-1-yl)(5-nitro-3-phenyl-1H-indol-2-yl)methanone] | 1.7 | 1.6 | 1.6 | 1.4 | 1.3 | 1.4 | SILAC ratio, Canx ([1]; competitor 10 μM): 1.3; SILAC ratio, Canx ([1]; competitor 50 μM): 1.8; SILAC ratio, Canx ([1]; competitor 100 μM): 2.6; SILAC ratio, Rab11a ([2]; competitor 10 μM): 1.2; SILAC ratio, Rab11a ([2]; competitor 50 μM): 1.9; SILAC ratio, Rab11a ([2]; competitor 100 μM): 2.4; SILAC ratio Bsg ([3]; competitor 10 μM): 1.4; SILAC ratio Bsg ([3]; competitor 50 μM): 1.2; SILAC ratio Bsg ([3]; competitor 100 μM): 1.6; SILAC ratio Ociad1 ([4]; competitor 10 μM): 1.1; SILAC ratio Ociad1 ([4]; competitor 50 μM): 1.1; SILAC ratio Ociad1 ([4]; competitor 100 μM): 1.5; SILAC ratio Naglu ([5]; competitor 10 μM): 1.4; SILAC ratio Naglu ([5]; competitor 50 μM): 1.9; SILAC ratio Naglu ([5]; competitor 100 μM): 1.7; SILAC ratio Atad3 ([6]; competitor 10 μM): 1.1; SILAC ratio Atad3 ([6]; competitor 50 μM): 1.3; SILAC ratio Atad3 ([6]; competitor 100 μM): 1.4
5 | C=CCN(C)CCCCCCOc1ccc(C(=O)c2ccc(Br)cc2)c(F)c1 [Ro 48-8071, reference compound] | 1.2 | 1.3 | 1.1 | 1.0 | 0.3 | 1.0 | –

From US10168342B2, “Lipid probes and uses thereof” (THE SCRIPPS RESEARCH INSTITUTE, priority 2015, dated 2019)
